Test results published in US9670213B2, “Pteridine ketone derivative and applications thereof as EGFR, BLK, and FLT3 inhibitor” (EAST CHINA UNIVERSITY OF SCIENCE AND TECHNOLOGY, priority 2012, dated 2017).

Tests used:
[1] = system: HCC827 (non-small cell lung cancer cells, EGFR del E746-A750); assay: Cell proliferation and growth inhibition analysis; type: cell-based; conditions: Homo sapiens, 72 hours, read-out: Inhibitory activity on cell proliferation (IC50, μM) HCC827
Description: (§1) Cell proliferation was evaluated by MTS assay. Cells were exposed to the process conditions for 72 hours, and the number of cells for each cell line used in the experiment was adjusted according to the absorbance value (absorbance value at 490 nm was 1.3-2.2). 6 concentration gradients (0.1 nM-10 μM) were set for the compounds to be tested, with six parallel controls for each concentration.
(§2) H1975, HCC827, A549, BT474, MCF-7, SK-BR-3 cells were cultured in the corresponding medium. Upon recovery, the cells were passaged at least two times and then used in experiments. Cells in Log phase were trypsinized and resuspended in the medium. H1975 (1000 cells per well), BT474 (1500 cells per well), MCF-7 (1500 cells per well), HCC827 (2000 cells per well), SK-BR-3 (2000 cells per well), A549 (2000 cells per well) were seeded into 96-well plates, the volume was 100 μL, and 6 rows and 7 columns were set. The plate was placed in an incubator at 37° C. of 5% carbon dioxide overnight. Compounds were dissolved in DMSO to obtain the concentration of […], and then gradually diluted to obtain the concentration of compound as […], 0.1 μM, 0.01 μM, 0.001 μM, 0.0001 μM. 2 μL of compound solution was added into 998 μL of medium, and the resulting mixture was thoroughly mixed. 100 μL of mixture was added into 96-well plate. […] After the cells were cultured for 68 hours, 20 μL of MTT (5 mg/mL) was added. After 4 hours, the supernatant was discarded and 150 μL of DMSO was added. The resulting system was shaken for 10 minutes, and the plate was read with Synergy HT (Bio TeK) (OD490). The data was calculated by GraphPad Prism version 4.0, and IC50 was obtained by non-linear regression model using dose-response curve.

[2] = system: H1975 (non-small cell lung cancer cells, EGFR L858R/T790M); assay: Cell proliferation and growth inhibition analysis; type: cell-based; conditions: Homo sapiens, NCI-H1975, 72 hours, read-out: Inhibitory activity on cell proliferation (IC50, μM) H1975
Description: as §1, §2

[3] = molecular target: EGFR-L858R/T790M (Homo sapiens (Human), UniProt P00533, L858R/T790M); assay: In vitro EGFR kinase activity assay (Z'-Lyte); type: biochemical; conditions: read-out: Inhibitory activity on EGFR kinase (IC50, nM) T790M/L858R;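 note: Cell-free kinase reaction with peptide substrate and ATP, 1.5 h at room temperature, development cleaving unphosphorylated peptide, 10-point dilution 0.051–1000 nM, phosphopeptide as 100% phosphorylation control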
EGFR-L858R/T790M, sequence (P00533 25-1210 T790M/L858R): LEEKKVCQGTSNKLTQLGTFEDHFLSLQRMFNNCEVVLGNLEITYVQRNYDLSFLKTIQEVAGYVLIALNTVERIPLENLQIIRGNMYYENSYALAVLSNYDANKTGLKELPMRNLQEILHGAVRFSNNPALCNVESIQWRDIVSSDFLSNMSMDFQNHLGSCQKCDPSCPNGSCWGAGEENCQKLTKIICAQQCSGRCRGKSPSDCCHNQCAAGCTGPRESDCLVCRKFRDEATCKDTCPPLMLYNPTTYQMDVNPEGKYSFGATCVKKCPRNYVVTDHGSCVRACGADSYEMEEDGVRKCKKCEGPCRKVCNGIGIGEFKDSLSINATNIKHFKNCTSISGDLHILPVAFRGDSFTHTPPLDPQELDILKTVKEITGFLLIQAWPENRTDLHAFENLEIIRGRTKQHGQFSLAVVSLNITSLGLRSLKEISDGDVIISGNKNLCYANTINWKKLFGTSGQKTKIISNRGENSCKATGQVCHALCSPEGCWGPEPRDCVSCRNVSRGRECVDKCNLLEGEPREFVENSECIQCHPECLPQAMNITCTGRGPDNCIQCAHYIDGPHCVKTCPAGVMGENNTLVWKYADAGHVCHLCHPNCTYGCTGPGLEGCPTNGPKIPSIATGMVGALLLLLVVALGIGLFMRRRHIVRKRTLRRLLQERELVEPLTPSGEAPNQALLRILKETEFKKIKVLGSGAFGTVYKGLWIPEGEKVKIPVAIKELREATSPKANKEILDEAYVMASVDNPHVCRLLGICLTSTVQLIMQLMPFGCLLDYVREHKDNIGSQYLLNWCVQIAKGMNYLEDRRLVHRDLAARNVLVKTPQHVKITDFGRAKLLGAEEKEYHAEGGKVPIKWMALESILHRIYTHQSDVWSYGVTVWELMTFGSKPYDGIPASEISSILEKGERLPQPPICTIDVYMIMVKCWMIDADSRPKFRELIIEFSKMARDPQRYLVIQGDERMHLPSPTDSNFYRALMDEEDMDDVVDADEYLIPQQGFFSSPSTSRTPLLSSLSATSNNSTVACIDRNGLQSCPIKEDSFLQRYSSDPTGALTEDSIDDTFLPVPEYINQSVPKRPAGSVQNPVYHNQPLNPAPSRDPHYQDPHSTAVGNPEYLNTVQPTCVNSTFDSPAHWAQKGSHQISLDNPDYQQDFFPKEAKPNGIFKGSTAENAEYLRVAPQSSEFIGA
Description: (§8) Inhibitory effects in vitro of the compounds provided in the present invention on EGFR kinase activity was tested as follows:
(§9) 10 concentration gradients, from 5.1×10^−11 mol/L to 1.0×10^−6 mol/L, were set for all of the compounds to be tested.
(§10) 10 μL of kinase reaction system comprised 2.5 μL of compound solution, 5 μL of Kinase/peptide mixture, and 2.5 μL of ATP solution. 5 μL of phosphopeptide solution was used in place of kinase/peptide mixture as 100% phosphorylation control. […] After thoroughly mixing the solution within the plate, the plate was incubated at room temperature for 1.5 hours. 5 μL of DevelopmentSolution was added into each well, and then the plate was incubated at room temperature for another 1 hour, and non-phosphorylated peptide was cleaved within this period. Finally, the reaction was quenched by adding 5 μL of Stop Reagent. The Plate was measured with EnVision Multilabel Reader (Perkin Elmer). Experimental data were calculated by using GraphPad Prism version 4.0. Each experiment was repeated more than three times.

[4] = molecular target: BLK (Homo sapiens (Human), UniProt P51451); assay: BLK kinase activity assay (Caliper); type: biochemical; conditions: read-out: Inhibitory activity on kinase (IC50, nM) BLK
BLK, sequence (P51451 whole entry): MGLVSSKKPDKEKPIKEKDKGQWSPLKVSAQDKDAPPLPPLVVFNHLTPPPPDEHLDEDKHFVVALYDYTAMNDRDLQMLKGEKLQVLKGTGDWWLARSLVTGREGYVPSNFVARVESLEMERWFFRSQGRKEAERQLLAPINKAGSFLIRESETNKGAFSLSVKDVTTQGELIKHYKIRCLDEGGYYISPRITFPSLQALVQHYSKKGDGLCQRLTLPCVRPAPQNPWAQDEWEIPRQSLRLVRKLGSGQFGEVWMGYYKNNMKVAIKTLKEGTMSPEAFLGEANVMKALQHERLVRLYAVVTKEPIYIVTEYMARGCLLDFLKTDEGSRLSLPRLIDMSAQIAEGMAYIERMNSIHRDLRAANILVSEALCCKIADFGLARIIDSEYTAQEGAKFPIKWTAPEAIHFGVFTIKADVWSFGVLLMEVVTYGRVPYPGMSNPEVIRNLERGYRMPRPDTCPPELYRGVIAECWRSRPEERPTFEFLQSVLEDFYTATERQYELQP
Description: (§3) Preparation of 1× kinase matrix buffer and stop buffer.
(§4) Preparation of compound solution. The compound was dissolved in 100% DMSO to a concentration, which was 50 times of the final highest inhibiting-concentration. 100 μL of the compound solution as said above was transferred into wells of 96-well plate. The above compound solution was sequentially diluted to the final desired concentration. In two blank wells of same 96-well plate, 100 μL of 100% DMSO was added as no-compound and no-kinase control, and this plate was used as the original plate.
(§5) Preparation of intermediate plate. 10 μL of compound solution was transferred from the original plate to another 96-well plate as the intermediate plate; 90 μL of 1× kinase buffer was added into each well of the intermediate plate, and the intermediate plate was shaken for 10 min.
(§6) Preparation of assay plate. 5 μL of solution from each well of intermediate plate was added into a 384-well plate, and repeated controls were set.
(§7) Kinase reaction. 2.5× kinase solution and 2.5× peptide solution were prepared. 2.5× kinase solution was transferred into assay plate. Assay plate comprised 5 μL of the compound solution in 10% DMSO. 10 μL of 2.5× kinase solution was added in each well of 384-well assay plate. […] 2.5× peptide solution was added into each well. After incubated at 28° C. for an appropriate time, 25 μL of stop buffer was added to quench the reaction. Experimental data were collected in Caliper. Curve was fitted.

[5] = molecular target: wild-type EGFR (Homo sapiens (Human), UniProt P00533); assay: In vitro EGFR kinase activity assay (Z'-Lyte); type: biochemical; conditions: EGFR WT; read-out: Inhibitory activity on EGFR kinase (IC50, nM) WT;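 note: Ten-point dose series from 5.1×10^−11 to 1.0×10^−6 mol/L, kinase reaction 1.5 h at room temperature, then 1 h development cleaving unphosphorylated peptide, phosphopeptide as 100% phosphorylation control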
wild-type EGFR, sequence (P00533 25-1210): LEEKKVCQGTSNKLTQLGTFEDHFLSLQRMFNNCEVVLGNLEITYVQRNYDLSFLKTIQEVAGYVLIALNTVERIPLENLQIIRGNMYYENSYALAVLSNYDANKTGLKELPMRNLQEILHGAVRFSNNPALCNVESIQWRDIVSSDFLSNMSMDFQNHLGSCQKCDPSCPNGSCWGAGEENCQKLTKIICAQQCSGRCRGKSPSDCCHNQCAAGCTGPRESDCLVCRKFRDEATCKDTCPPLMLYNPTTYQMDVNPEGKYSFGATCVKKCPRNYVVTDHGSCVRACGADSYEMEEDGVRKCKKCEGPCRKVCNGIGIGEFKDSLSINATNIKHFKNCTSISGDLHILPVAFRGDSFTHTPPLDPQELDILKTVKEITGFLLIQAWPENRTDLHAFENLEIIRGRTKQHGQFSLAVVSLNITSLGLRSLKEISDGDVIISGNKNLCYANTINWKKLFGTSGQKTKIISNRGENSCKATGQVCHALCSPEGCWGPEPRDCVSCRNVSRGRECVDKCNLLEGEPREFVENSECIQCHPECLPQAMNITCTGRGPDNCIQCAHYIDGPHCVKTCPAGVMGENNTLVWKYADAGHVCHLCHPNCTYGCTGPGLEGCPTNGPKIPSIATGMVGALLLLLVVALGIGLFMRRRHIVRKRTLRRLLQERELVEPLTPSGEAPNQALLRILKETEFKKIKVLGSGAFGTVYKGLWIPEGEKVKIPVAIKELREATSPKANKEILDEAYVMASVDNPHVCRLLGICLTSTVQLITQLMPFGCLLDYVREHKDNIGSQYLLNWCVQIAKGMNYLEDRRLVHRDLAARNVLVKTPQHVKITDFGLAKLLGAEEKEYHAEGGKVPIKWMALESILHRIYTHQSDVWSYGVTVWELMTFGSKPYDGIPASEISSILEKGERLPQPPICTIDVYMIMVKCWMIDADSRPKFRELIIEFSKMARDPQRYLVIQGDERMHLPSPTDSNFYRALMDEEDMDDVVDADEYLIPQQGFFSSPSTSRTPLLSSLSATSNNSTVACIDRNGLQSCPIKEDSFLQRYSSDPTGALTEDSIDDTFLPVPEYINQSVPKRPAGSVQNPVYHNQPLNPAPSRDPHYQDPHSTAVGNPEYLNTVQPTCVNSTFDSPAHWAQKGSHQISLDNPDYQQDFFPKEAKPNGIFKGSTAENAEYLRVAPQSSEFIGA
Description: as §8, §9, §10

[6] = molecular target: FLT3 (Homo sapiens (Human), UniProt P36888); assay: FLT3 kinase activity assay (Caliper); type: biochemical; conditions: read-out: Inhibitory activity on kinase (IC50, nM) FLT3
FLT3, sequence (P36888 27-993): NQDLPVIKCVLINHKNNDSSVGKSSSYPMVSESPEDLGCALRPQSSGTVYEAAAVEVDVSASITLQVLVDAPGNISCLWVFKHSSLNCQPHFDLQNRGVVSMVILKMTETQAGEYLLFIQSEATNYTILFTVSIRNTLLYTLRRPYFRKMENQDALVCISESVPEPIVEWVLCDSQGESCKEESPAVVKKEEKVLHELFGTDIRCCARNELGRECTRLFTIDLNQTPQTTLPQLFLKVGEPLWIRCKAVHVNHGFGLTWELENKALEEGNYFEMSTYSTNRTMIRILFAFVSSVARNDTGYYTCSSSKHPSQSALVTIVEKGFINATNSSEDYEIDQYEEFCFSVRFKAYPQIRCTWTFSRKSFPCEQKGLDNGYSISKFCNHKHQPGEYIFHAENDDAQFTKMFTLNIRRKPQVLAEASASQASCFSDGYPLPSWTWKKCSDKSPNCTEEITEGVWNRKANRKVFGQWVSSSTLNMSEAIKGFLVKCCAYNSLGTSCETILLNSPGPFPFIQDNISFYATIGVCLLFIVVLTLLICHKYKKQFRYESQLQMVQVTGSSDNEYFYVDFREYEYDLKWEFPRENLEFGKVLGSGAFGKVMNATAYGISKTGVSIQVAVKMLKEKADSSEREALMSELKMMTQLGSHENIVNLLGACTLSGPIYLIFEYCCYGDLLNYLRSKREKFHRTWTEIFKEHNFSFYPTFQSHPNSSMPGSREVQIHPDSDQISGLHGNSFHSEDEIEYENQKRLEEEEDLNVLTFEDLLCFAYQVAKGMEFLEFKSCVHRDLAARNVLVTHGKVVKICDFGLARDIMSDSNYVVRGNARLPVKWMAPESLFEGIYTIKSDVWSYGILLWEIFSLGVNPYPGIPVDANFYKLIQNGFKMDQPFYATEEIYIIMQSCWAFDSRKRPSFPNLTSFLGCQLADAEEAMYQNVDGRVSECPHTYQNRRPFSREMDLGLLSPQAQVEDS
Description: as §3, §4, §5, §6, §7

[7] = molecular target: EGFR-L858R (Homo sapiens (Human), UniProt P00533, L858R); assay: In vitro EGFR kinase activity assay (Z'-Lyte); type: biochemical; conditions: read-out: Inhibitory activity on EGFR kinase (IC50, nM) L858R;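 note: Cell-free kinase reaction with peptide substrate and ATP, 1.5 h at room temperature, then development step cleaving non-phosphorylated peptide, 10-point dilution series 0.051–1000 nM, phosphopeptide as 100% phosphorylation control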
EGFR-L858R, sequence (P00533 25-1210 L858R): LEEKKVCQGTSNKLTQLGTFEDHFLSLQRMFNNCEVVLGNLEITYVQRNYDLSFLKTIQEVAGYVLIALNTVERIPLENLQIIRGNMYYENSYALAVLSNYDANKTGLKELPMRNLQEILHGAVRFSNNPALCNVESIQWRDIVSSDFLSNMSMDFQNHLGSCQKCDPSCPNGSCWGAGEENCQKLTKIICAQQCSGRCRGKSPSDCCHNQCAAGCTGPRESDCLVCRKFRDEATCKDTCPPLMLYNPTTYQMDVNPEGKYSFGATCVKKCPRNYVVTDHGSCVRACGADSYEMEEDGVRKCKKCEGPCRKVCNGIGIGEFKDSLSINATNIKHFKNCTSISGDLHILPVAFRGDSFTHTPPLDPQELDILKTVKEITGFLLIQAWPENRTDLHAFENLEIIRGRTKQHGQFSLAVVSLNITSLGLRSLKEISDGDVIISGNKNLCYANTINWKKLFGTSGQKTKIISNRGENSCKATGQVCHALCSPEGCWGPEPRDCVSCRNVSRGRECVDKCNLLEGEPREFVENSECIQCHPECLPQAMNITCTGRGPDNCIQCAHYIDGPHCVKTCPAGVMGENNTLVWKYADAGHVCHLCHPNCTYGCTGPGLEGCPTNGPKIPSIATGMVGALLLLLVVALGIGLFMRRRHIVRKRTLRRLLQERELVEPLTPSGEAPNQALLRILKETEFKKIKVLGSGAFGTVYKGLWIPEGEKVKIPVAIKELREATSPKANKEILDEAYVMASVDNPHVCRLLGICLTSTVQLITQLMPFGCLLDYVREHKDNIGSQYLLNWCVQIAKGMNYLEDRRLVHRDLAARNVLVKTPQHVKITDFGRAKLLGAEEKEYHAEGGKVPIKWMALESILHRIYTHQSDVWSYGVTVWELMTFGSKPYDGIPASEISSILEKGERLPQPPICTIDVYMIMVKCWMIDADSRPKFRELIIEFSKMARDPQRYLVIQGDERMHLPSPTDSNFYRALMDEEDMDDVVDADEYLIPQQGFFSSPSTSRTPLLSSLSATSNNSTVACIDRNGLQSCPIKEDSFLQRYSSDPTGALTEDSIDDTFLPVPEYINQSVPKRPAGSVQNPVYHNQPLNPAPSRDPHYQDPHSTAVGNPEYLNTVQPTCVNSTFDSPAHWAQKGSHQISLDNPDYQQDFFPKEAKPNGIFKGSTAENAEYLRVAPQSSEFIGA
Description: as §8, §9, §10

| SMILES | IC50 [1] | IC50 [2] | IC50 [3] | IC50 [4] | IC50 [5] | IC50 [6] | IC50 [7] |
| --- | --- | --- | --- | --- | --- | --- | --- |
| C=CC(=O)Nc1cccc(-n2c(=O)cnc3cnc(Nc4ccc(N5CCOCC5)cc4)nc32)c1 [Compound 018, N-(3-(2-(4-morpholinophenylamino)-7-oxo-8(7H)-pteridin-yl)phenyl) acrylamide] | 0.017 µM | 0.216 µM | 3.02 nM | 41 nM | 7.94 nM | 798 nM | 5.83 nM |
| CN(C)C/C=C/C(=O)Nc1ccc(-n2c(=O)cnc3cnc(Nc4ccccc4)nc32)cc1 [Compound 012, 4-(dimethylamino)-N-(4-(7-oxo-2-(phenylamino)-8(7H)-pteridin-yl)phenyl)-2-buteneamide] | 4.42 µM | 18.9 µM | 1920 nM | 6320 nM | 5980 nM | 160 nM | 5340 nM |
| C=CC(=O)Nc1cccc(Oc2nc(Nc3ccc(N4CCN(C)CC4)cc3OC)ncc2Cl)c1 [WZ4002, reference compound] | 0.014 µM | 0.039 µM |  |  |  |  |  |
| CN(C)C/C=C/C(=O)Nc1cccc(-n2c(=O)cnc3cnc(Nc4ccccc4)nc32)c1 [Compound 013, 4-(dimethylamino)-N-(3-(7-oxo-2-(phenylamino)-8(7H)-pteridin-yl)phenyl)-2-buteneamide] |  |  |  | 171 nM |  | 3780 nM |  |
| COc1ccc(-n2c(=O)cnc3cnc(Nc4ccc(N)cc4)nc32)cc1 [Compound 030, 2-(4-aminophenylamino)-8-(4-methoxyphenyl)-7(8H)-pteridin-one] | 4.65 µM | 15.3 µM | 6750 nM | > 10000 nM | 3420 nM | 43 nM | 23800 nM |
| C=CC(=O)Nc1cccc(-n2c(=O)cnc3cnc(Nc4ccc(N(CC)CC)cc4)nc32)c1 [Compound 023, N-(3-(2-(4-(diethylamino)phenylamino)-7-oxo-8(7H)-pteridin-yl)phenyl) acrylamide] | 0.031 µM | 0.477 µM | 5.57 nM | 83 nM | 23.1 nM | 1760 nM | 16.3 nM |
| C=CC(=O)Nc1ccc(Nc2ncc3ncc(=O)n(-c4ccc(OC)cc4)c3n2)cc1 [Compound 029, N-(4-(8-(4-methoxyphenyl)-7-oxo-7,8-dihydro-pteridin-2-amino)phenyl) acrylamide] | 0.543 µM | 0.953 µM | > 10000 nM | > 10000 nM | > 10000 nM | 100 nM | 1320 nM |
| C=CC(=O)Nc1cccc(-n2c(=O)cnc3cnc(Nc4ccc(N5CCCCC5)cc4)nc32)c1 [Compound 021, N-(3-(7-oxo-2-(4-(1-piperidinyl)phenylamino)-8(7H)-pteridinyl)phenyl) acrylamide] | 0.02 µM | 0.238 µM | 5.49 nM | 83 nM | 19.7 nM | 878 nM | 11.7 nM |
| C=CC(=O)Nc1cccc(-n2c(=O)cnc3cnc(Nc4ccccc4)nc32)c1 [Compound 015, N-(3-(7-oxo-2-(phenylamino)-8(7H)-pteridin-yl)phenyl)acrylamide] |  | 0.437 µM |  |  |  | 1860 nM |  |
| C=CC(=O)Nc1ccc(-n2c(=O)cnc3cnc(Nc4ccc(N5CCN(C)CC5)cc4OC)nc32)cc1 [Compound 031] | 0.466 µM | 2.88 µM | 229 nM | 812 nM | 429 nM | 180 nM | 376 nM |
| C=CC(=O)Nc1ccc(-n2c(=O)cnc3cnc(Nc4ccc(Cl)cc4)nc32)cc1 [Compound 016, N-(4-(2-(4-chlorophenylamino)-7-oxo-8(7H)-pteridin-yl)phenyl) acrylamide] | 68.7 µM | 20.8 µM | 1490 nM | > 10000 nM | 7580 nM | 358 nM | 116 nM |

Now from value to molecule:

| IC50 [1] | IC50 [2] | IC50 [3] | IC50 [4] | IC50 [5] | IC50 [6] | IC50 [7] | SMILES |
| --- | --- | --- | --- | --- | --- | --- | --- |
| 15.9 µM | 82.8 µM | 3530 nM | 7950 nM | 10600 nM | 34 nM | 18900 nM | COc1ccc(-n2c(=O)cnc3cnc(Nc4cccc(N)c4)nc32)cc1 [Compound 028, 2-(3-aminophenylamino)-8-(4-methoxyphenyl)-7(8H)-pteridin-one] |
| 0.073 µM | 0.531 µM | 5.33 nM | 98 nM | 23.3 nM | 1080 nM | 12.6 nM | C=CC(=O)Nc1cccc(-n2c(=O)cnc3cnc(Nc4ccc(N5CCCC5)cc4)nc32)c1 [Compound 022, N-(3-(7-oxo-2-(4-(1-pyrrolidinyl)phenylamino)-8(7H)-pteridin-yl)phenyl) acrylamide] |
| 0.229 µM | 6.08 µM | 5.12 nM | 148 nM | 15.8 nM | 3550 nM | 13.4 nM | C=CC(=O)Nc1cccc(-n2c(=O)cnc3cnc(Nc4ccc(NC(C)=O)cc4)nc32)c1 [Compound 024, N-(3-(2-(4-(acetylamino)-phenylamino)-7-oxo-8(7H)-pteridin-yl)phenyl) acrylamide] |
| 0.604 µM | 7.3 µM | 4.39 nM | 76 nM | 12.7 nM | 1790 nM | 9.64 nM | C=CC(=O)Nc1cccc(-n2c(=O)cnc3cnc(Nc4ccc(C(N)=O)cc4)nc32)c1 [Compound 025, 4-(8-(3-acrylamidephenyl)-7-oxo-7,8-dihydropteridinyl-2-amino)benzamide] |
| 68.1 µM | 77.8 µM | 113 nM | 7480 nM | 16.1 nM | 129 nM | 26.4 nM | C=CC(=O)Nc1ccc(-n2c(=O)cnc3cnc(Nc4ccccc4)nc32)cc1 [Compound 014, N-(4-(7-oxo-2-(phenylamino)-8(7H)-pteridin-yl)phenyl) acrylamide] |
|  |  |  | 96 nM |  | 568 nM |  | C=CC(=O)Nc1cccc(-n2c(=O)c(C)nc3cnc(Nc4ccc(OC)cc4)nc32)c1 [Compound 026, N-(3-(2-(4-methoxyphenylamino)-6-methyl-7-oxo-8(7H)-pteridin-yl)phenyl) acrylamide] |
| 0.408 µM | 3.05 µM | 1200 nM | 5660 nM | 2000 nM | 119 nM | 1710 nM | C=CC(=O)Nc1cccc(Nc2ncc3ncc(=O)n(-c4ccc(OC)cc4)c3n2)c1 [Compound 027, N-(3-(8-(4-methoxyphenyl)-7-oxo-7,8-dihydro-pteridin-2-amino)phenyl) acrylamide] |
| 0.163 µM | 0.82 µM | 70.3 nM | 156 nM | 67 nM | 2820 nM | 84.8 nM | C=CC(=O)Nc1cccc(-n2c(=O)cnc3cnc(Nc4ccc(Cl)cc4)nc32)c1 [Compound 017, N-(3-(2-(4-chlorophenylamino)-7-oxo-8(7H)-pteridin-yl)phenyl) acrylamide] |
| 2.29 µM | 5.6 µM | 70.3 nM | 89 nM | 67 nM | 48 nM | 84.8 nM | C=CC(=O)Oc1ccc(-n2c(=O)cnc3cnc(Nc4ccc(OC)cc4)nc32)cc1 [Compound 011, 4-(2 (4-methoxyphenylamino)-7-oxo-8(7H)-pteridin-yl)phenyl acrylate] |
